Data on 60 compounds can be found in PubChem BioAssay AID2305 (GlaxoSmithKline (GSK), 2010).

The test system of this assay is P. falciparum 3D7 growth, pLDH absorbance. Description: P. falciparum 3D7 growth inhibition, dose response, strain 3D7 (AID 2305).

Molecules are shown by their SMILES. Values joined by “and” are separate entries in the source; they are usually repeats but may differ in a detail not shown here. Identical values can stand only once.

The compound `CCCCNCc1ccc(-c2nc(CN(CCCn3ccnc3)C(=O)C3COc4ccccc4O3)cs2)cc1` (stereo not given) had an IC50 of 890 nM.
The figure for `CC(C)CCN(Cc1cncn1Cc1cccc(C(F)(F)F)c1)C(=O)c1ccccc1C#N` is 610 nM; for `Cc1[nH]n(-c2cccc(C(F)(F)F)c2)c(=O)c1-c1ccc(Cl)cc1` it is 860 nM.
The value for `CCCN(CC(=O)NCCc1ccccc1)c1ccc(C#N)c2ccccc12` was 500 nM; that for `Cc1cc(N2CCCC2)nc(Nc2ccc(NC(=O)CC(C)C)cc2)n1` was 840 nM; that for `Cc1ccc(S(=O)(=O)N2CCN(C(=O)c3cc(-c4cccs4)[nH]n3)CC2)c(C)c1` was 870 nM.
In the case of `COc1cc(/C=C/C(=O)NC2CCC(CN3CCC(c4c[nH]c5ccccc45)CC3)CC2)ccc1O` (stereo not given), the IC50 is 810 nM and 790 nM.
The compound `CC(=O)Nc1ccc(CN2CCC(NC(=O)c3ccc(-c4ccc(N(C)C)cc4)s3)CC2)cc1` gave an IC50 of 870 nM.
The figure for `NCCNc1ccc([N+](=O)[O-])cc1C(=O)Nc1cccc(C(F)(F)F)c1` is 910 nM.
`CCCCNCC(O)COc1ccccc1-c1ccc(N/N=C/c2cccc3ccccc23)nn1` (stereo not given) registered an IC50 of 890 nM.
As for `COc1ccc(S(=O)(=O)NC2CCN(CCNC(=O)Nc3cc(C)nc4ccccc34)C2)cc1` (stereo not given), the IC50 worked out at 1190 nM.
`COc1ccc2c(c1)CCCC2NCCCCNC(=O)c1ccc(NC(=O)c2ccc(Cl)cc2)cc1` (stereo not given): the IC50 is 380 nM.
The value for `CCOc1ccc2c(NN=Cc3cccc(Cl)c3)cc(C)nc2c1` was 860 nM; that for `CC(C)CCn1c(Sc2ccc(C#N)c([N+](=O)[O-])c2)nnc1-c1ccc(N(C)C)cc1` was 790 nM; that for `COc1ccc(Br)cc1/C=C/C(=O)Nc1ccc2c(c1)CCCN(C)C2` was 1560 nM.
The value for `N#Cc1cncc(-c2nc3c(N4CCC(Cc5ccccc5)CC4)cccc3n2CCNCc2ccccc2)c1` was 570 nM; that for `Cc1cc(NC(=O)c2cc(Br)ccc2Cl)n(-c2nc(C)c(C)c(=O)[nH]2)n1` was 1130 nM.
The value for `Cn1cc(C(=O)Nc2cccc(-c3cccc(-c4nc5ccccc5[nH]4)c3)c2)n(C)c1=O` was 710 nM.
In turn, `COc1ccc(C(=O)CCC(=O)N(Cc2ccc(-c3ccc(CNCCc4ccc(S(C)(=O)=O)cc4)cn3)cc2)C2CCN(Cc3ccccc3)CC2)cc1F` had an IC50 of 440 nM.
The figure for `CCOC(=O)N1CCN(C(=O)Nc2ccc(Cl)cc2)CC1` is 1520 nM.
The figure for `CN(C)c1ccc(-c2csc(C(=O)NC3CCN(Cc4ccc(C(C)(C)C)cc4)C3)c2)cc1` (stereo not given) is 950 nM; for `Cc1cccc(-c2ccc(NC(=O)Nc3ccc4nccc(N5CCN(C)CC5)c4c3)cc2C)n1` it is 210 nM.
Compound `CCCCOc1cc(C)nc2ccc(NC(=O)COCC(=O)Nc3ccc4nc(C)cc(OCCCC)c4c3)cc12` yielded an IC50 of 1000 nM.
The figure for `Cc1[nH]c(C)c(-c2ccc(OCc3cc(C(F)(F)F)cc(C(F)(F)F)c3)nc2)c(=O)c1Br` is 150 nM; for `CS(=O)(=O)Nc1ccc2[nH]cc(C3CCN(CC4CCC(NC(=O)/C=C/c5ccc(Cl)c(Cl)c5)CC4)CC3)c2c1` (stereo not given) it is 850 nM; for `CC(Oc1ccc(NC(=O)c2cccs2)cc1)C(=O)c1ccc(Cl)cc1` (stereo not given) it is 770 nM.
On to `COc1ccc(CN2CCN(CCOC(c3ccccc3)c3ccc(Cl)cc3)CC2)c(O)c1` (stereo not given), for which the IC50 worked out at 710 nM.
Turning to `O=C(/C=C/c1ccc(Cl)c(Cl)c1)NCCCCCCN1CCN(C(=O)Nc2ccc(C(F)(F)F)cc2)CC1`, the IC50 is 400 nM.
In the case of `COC(=O)c1cccc(CNCc2cccc(-c3ccc(-c4nc5ccccc5[nH]4)cc3)c2)c1`, the IC50 came out at 350 nM.
The figure for `CCCNCc1ccc(-c2ccc(CN(CCOC)C(=O)c3cccc(C#N)c3)cc2)nc1` is 1230 nM; for `CCOc1ccc(Cc2c(C)nc3nc(N)nc(N)c3c2C)cc1` it is 1060 nM.
For the compound `Nc1nc(N)c2c(Oc3cccnc3)cccc2n1`, the IC50 came to 890 nM.
`COc1ccc(-c2cc(C(=O)N[C@@H](CC3CCCCC3)C(=O)NC3CCCc4ccccc43)ccc2O)cc1` (stereo not given in full) yielded an IC50 of 690 nM.
The figure for `COc1ccc(-c2cnc3ccc(NCCCO)nn23)cc1OC` is 670 nM; for `CCc1cn2c3c(cc(C(=O)N[C@@H](Cc4ccccc4)[C@H](O)CNC4CCCCC4)cc13)N(CC)S(=O)(=O)CC2` it is 30 nM; for `O=C(NCCCCCN1CCC(c2c[nH]c3ccccc23)CC1)Nc1ccc(Cl)cc1Cl` it is 720 nM.
The figure for `COc1cc(Nc2nccc(-c3c(-c4cccc(NC(=O)c5c(F)cccc5F)c4)nn4ccccc34)n2)cc(OC)c1OC` is 80 nM.
On to `O=S(=O)(c1cccc(F)c1)c1ccc(Nc2ncnc3cc(Br)sc23)cc1Cl`, for which the IC50 was 1030 nM.
The figure for `CCN(CC)CCN(Cc1ccc(-c2ccc(C(F)(F)F)cc2)cc1)C(=O)Cn1c(CCc2cccc(F)c2F)nc(=O)c2ccccc21` is 670 nM; for `O=C(/C=C/c1ccc(Cl)c(Cl)c1)NCCCCCN1CCCN(C(=O)Nc2ccc(OC(F)F)cc2)CC1` it is 830 nM; for `NC(N)=NCCN(Cc1ccccc1)c1ccc(Cl)cc1` it is 50 nM.
The value for `CC[C@H](NC(=O)c1c(CC2CCN(CC(C)=O)CC2)c(-c2ccccc2)nc2ccccc12)c1ccccc1` was 380 nM; that for `Cc1[nH]nc2ccc(-c3cc(OC[C@@H](N)Cc4ccccc4)cnc3-c3cc4ccccc4s3)cc12` was 810 nM.
The value for `O=C(N[C@@H](Cc1ccccc1)[C@H](O)CNC1CCOCC1)c1cc(C2CCCC2)cc(N2CCCCS2(=O)=O)c1` was 200 nM; that for `CCCCc1cc(=O)oc2cc(C)cc(OCc3ccccc3F)c12` was 1030 nM; that for `COc1cc(C)nc2ccc(NC(=O)c3cc([N+](=O)[O-])cc([N+](=O)[O-])c3)cc12` was 390 nM.
In the case of `Cc1[nH]c2ccc([N+](=O)[O-])cc2c1C1=CCN(C)CC1`, the IC50 turned out to be 330 nM. The IC50 values of the last two compounds are within 1.5-fold of each other.
On to `CS(=O)(=O)CCNCc1cccc(-c2cc3c(Nc4ccc(OCc5ccccc5)cc4)ncnc3cn2)c1`, for which the IC50 worked out at 730 nM.
The value for `CCOC(=O)c1sc(C(C)Nc2ccccc2)nc1-c1ccccc1` (stereo not given) was 330 nM.
Take `CC(=O)Nc1cccc(Nc2nccc(Nc3ccc(Oc4ccccc4)cc3)n2)c1`: the IC50 came out at 750 nM.
The value for `Cc1cccc(CN2CCC(CNC(=O)c3cc4c(-c5ccccc5F)nn(C)c4s3)CC2)c1` was 1090 nM; that for `Cc1noc(C)c1-c1ccc2c(Nc3cccc4c3-c3ccccc3C4=O)c(C(=O)NCc3ccccc3I)cnc2c1` was 630 nM.
In turn, `N[C@@H](COc1cccc2c(-c3ccncc3)c(-c3cccc(NC(=O)Nc4ccccc4)c3)nn12)c1ccccc1` displayed an IC50 of 410 nM.
The figure for `CCC(C)NC(=O)Nc1ccc(-c2cccc(-c3nc4c(C)cccc4[nH]3)c2)cc1` (stereo not given) is 190 nM; for `CC(=O)c1ccc(N2CCN(CCC3(c4ccc(Cl)c(Cl)c4)COCN(C(=O)c4ccccc4)C3)CC2)cc1` (stereo not given) it is 920 nM.
`CC(C)(C)c1ccc(OC(=O)c2ccc(NC(=O)N[C@@H](Cc3ccc(O)cc3)C(=O)NC3CCN(Cc4ccc(O)cc4)C3)cc2)cc1` (stereo not given in full) came in with an IC50 of 810 nM.
The figure for `O=C(Nc1ccc(-c2cccc(-c3nc4ccc(C(F)(F)F)cc4[nH]3)c2)cc1)c1ccc(=O)[nH]n1` is 1070 nM.
The value for `CCCc1c(C(=O)NC2CCC(CN3CCC(c4c[nH]c5ccccc45)CC3)CC2)cnn1-c1ccccc1` (stereo not given) was 1790 nM.
Take `c1ccc(C(c2ccccc2)N2CCN(C(c3cccnc3)c3nnnn3C3CCCC3)CC2)cc1` (stereo not given): the IC50 came out at 1080 nM. Compared with the last compound, the IC50 is about 1.7-fold lower.
The value for `Clc1ccc(Cc2nc3ccccc3[nH]2)cc1Cl` was 250 nM.

The IC50 is the concentration that gives 50% inhibition. The low end stands for greater potency in that assay, the high end for weaker potency in that assay.
